The IC50 is the concentration that gives 50% inhibition. Read a low IC50 as higher potency.

Activity calls are given as the source filed them. The calls are words filed in the database; no cut-off is given here.

The test system of one assay is SF-268. Put plainly: Cytotoxicity against human SF-268 cells by MTT assay. It counts as functional, cell-based.
Assay [1] deals with Prostaglandin G/H synthase 1 (Homo sapiens) (UniProt P23219). The assay is described as follows: Inhibition of cyclooxygenase 1 at 103.7 uM.
In the next assay the test system is AGS. Put plainly: Cytotoxicity against human AGS cells by MTT assay. The class given is functional, cell-based. (In general: Formazan colour is commonly taken as a measure of viable cells.)
Assay [2] concerns the target T1, Prostaglandin G/H synthase 2 (Homo sapiens) (UniProt P35354).
T1 sequence (whole entry): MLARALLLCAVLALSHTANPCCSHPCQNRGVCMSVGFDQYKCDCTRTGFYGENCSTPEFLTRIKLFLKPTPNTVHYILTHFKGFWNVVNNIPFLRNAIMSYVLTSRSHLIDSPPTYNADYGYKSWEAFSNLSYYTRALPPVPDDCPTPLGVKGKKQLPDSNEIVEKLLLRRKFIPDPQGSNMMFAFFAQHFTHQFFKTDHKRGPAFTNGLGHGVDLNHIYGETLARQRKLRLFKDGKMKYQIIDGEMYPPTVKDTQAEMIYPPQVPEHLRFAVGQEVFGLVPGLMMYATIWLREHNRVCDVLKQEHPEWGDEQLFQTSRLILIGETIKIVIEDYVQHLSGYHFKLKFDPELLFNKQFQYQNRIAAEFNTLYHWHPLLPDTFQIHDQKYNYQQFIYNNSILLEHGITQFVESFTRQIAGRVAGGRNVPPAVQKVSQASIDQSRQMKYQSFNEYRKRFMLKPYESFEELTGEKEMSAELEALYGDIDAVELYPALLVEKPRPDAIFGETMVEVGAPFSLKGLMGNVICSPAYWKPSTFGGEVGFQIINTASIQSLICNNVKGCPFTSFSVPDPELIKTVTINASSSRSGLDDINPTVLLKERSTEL
The assay is described as follows: Inhibition of cyclooxygenase 2 at 103.7 uM.

In another assay the test system is HCT-116. Put plainly: Cytotoxicity against human HCT116 cells by MTT assay. The class given is functional, cell-based.
Another assay deals with MCF7. The assay is described as follows: Cytotoxicity against human MCF7 cells by MTT assay. The class given is functional, cell-based.
Another assay has as its system NCI-H460. Put plainly: Cytotoxicity against human NCI-H460 cells by MTT assay. The class given is functional, cell-based.

Sequence of Prostaglandin G/H synthase 1 (Homo sapiens) (P23219 whole entry): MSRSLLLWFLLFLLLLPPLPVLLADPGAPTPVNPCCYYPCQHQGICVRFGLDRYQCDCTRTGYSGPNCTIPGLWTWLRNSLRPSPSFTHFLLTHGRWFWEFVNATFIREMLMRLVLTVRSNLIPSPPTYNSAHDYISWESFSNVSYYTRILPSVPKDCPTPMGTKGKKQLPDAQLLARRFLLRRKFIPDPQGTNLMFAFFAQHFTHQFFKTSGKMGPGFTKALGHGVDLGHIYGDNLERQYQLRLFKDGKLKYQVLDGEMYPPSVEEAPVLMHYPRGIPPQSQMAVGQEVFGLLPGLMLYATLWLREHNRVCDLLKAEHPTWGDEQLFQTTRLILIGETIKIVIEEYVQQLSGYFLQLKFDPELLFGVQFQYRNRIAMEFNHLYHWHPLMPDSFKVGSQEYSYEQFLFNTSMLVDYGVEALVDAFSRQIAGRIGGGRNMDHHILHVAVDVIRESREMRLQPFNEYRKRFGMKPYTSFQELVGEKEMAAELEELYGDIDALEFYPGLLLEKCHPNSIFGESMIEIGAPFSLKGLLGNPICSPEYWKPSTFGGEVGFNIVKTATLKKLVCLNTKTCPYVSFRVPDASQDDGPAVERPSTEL

Regarding `CC(C)=CCC/C(C)=C/CC[C@]1(C)[C@@H](CC=C(C)C)CC2C(=O)C1(C(=O)C(C)C)C(=O)C=C2O` (stereo partly specified), the outcome (in the assay with SF-268; in assay [1]; with AGS; in assay [2]; in the assay on HCT-116; in the assay with MCF7) was inactive. Further, in the assay on NCI-H460, the result was inactive.
`COc1cccc2c1C(=O)c1c(O)c3c(c(O)c1C2=O)C[C@@](O)(C(=O)CO)C[C@@H]3O[C@H]1C[C@H](N)[C@H](O)[C@H](C)O1` [DOXORUBICIN]: the IC50 worked out at 1.55 µM in the assay with SF-268; 0.31 µM in the assay on AGS; 0.41 µM in the assay on HCT-116; 0.43 µM with MCF7; 0.66 µM with NCI-H460.
`CCC(C)C(=O)C12C(=O)C=C(O)C(C[C@H](CC=C(C)C)[C@@]1(C)CC/C=C(\C)CCC=C(C)C)C2=O` (stereo partly specified): the outcome (in the assay on SF-268; in assay [1]; in the assay on AGS; in assay [2]; with HCT-116; in the assay on MCF7) was inactive. In the assay on NCI-H460, the result was inactive.
Regarding `CCC(C)C(=O)c1c(O)cc(O)c2c1O[C@](C)(CC/C=C(\C)CCC=C(C)C)[C@@H](CC=C(C)C)C2` (stereo partly specified) [PROLIFICIN A], the IC50 in the assay with SF-268 turned out to be 30.9 µM; with AGS it was 32.4 µM; in the assay on HCT-116, 35.1 µM; in the assay on MCF7, 23.7 µM; with NCI-H460 it was 29.9 µM. Moreover, the outcome in assay [1] and in assay [2] was inactive.

The values above are taken from ChEMBL document CHEMBL1158115, “Acylphloroglucinol derivatives from Hypericum prolificum” (J Nat Prod, 2006).
